pEC50: −log10 of the molar value. “Also recorded” adds a separate entry of the source. Counter-ions that a name gives are not always drawn. Like-named read-outs stand apart in the source and are kept apart here.
Assays:
PC12 cells = assay: Protection of PC12 cells against camptothecin-induced cell death (BCECF AM fluorescence); format: cell-based
Protocol: The 2-amino-4,5,6,7-tetrahydrobenzothiazole hydrogen iodide, 1-(4-methylphenyl)-2-(4,5,6,7-tetrahydro-2-imino-3(2H)-benzothiazolyl)-ethanone hydrobromide, and analogues were tested for their ability to protect PC12 cells against the toxic agent, camptothecin. PC12 cells were cultured in RPMI1640 media containing 10% horse serum and 5% fetal calf serum (37° C., pH 7.4) until confluent. Thereafter, 2.2×10^4 cells per mL were added to each trough of a 96 well plate (approximately 6,270 cells per well 285 μL) and were left to grow for 12 h. The media then was removed and was replaced by media with and without the compounds to be tested, including precursor, PFTα, and numerous analogues (concentration 100-400 nM, prepared in DMSO to a final dilution of 0.4%, 8 wells per concentration). Following 6 h of incubation, camptothecin (40 μM) was added to 4 of each 8 wells, and the cells were incubated for a further 24 h. Cells then were gently washed twice with phosphate buffered saline (PBS: 0.1 M, 37° C., pH 7.4) and were incubated in PBS containing the live-cell indicator dye, 2′,7′-bis(2-carboxyethey)-5-6-carboxyfluorescein AM ester (BCECF AM: 5 μM) (Molecular Probes, CA), for 45 min in minimal light. This fluorescent dye was taken up and retained by live cells. Finally, the cells were washed twice in PBS and their fluorescence then was quantified (excitation: 490 nm, emission: 535 nm, Perkin Elmer HTS 7000).
PC12 cell survival was also assessed. One hundred percent cell survival was determined from cells incubated in the absence of both any compound and camptothecin. […] Compound-induced toxicity was assessed by comparing cells treated with compound at various concentrations in the absence of camptothecin with cells incubated in the absence of both compound and camptothecin. […] Compound-induced cellular protection was assessed by comparing cells incubated with camptothecin with cells incubated with camptothecin in the presence of compound, in a concentration-dependent manner.

rat hippocampal neurons = assay: Neuronal survival assay in cultured hippocampal neurons treated with camptothecin or etoposide; format: cell-based; conditions: for neuroprotection of hippocampal neurons against etoposide (in words): added 1 h before etoposide 2.5 μM; for protection of primary hippocampal cells against death induced by camptothecin and etoposide (in words): camptothecin 5 μM, etoposide 2.5 μM; for protection of primary hippocampal cells against death induced by camptothecin and etoposide (in words) / neuronal survival: 24 h; for neuronal survival: pretreated with 100 nM of analogue, then camptothecin (5 μM); for neuroprotection of hippocampal neurons against camptothecin (in words): 100 nM, added 1 h before camptothecin 5 μM
Protocol: 2-amino-4,5,6,7-tetrahydrobenzothiazole hydrogen and 1-(4-methylphenyl)-2-(4,5,6,7-tetrahydro-2-imino-3(2H)-benzothiazolyl)-ethanone hydrobromide and their analogues were assessed for their ability to protect rat hippocampal cells in culture from camptothecin ([…]).
Dissociated hippocampal cell cultures were established from embryonic day 18 Sprague-Dawley rats (Harlan, Inc.) as described previously. […] 77:220-28. Cells were grown in polyethyleneimine-coated plastic dishes or 22 m^2 glass coverslips, and incubated in Neurobasal medium containing B27 supplements, 2 mM L-glutamine, 25 mg/ml gentamycin, 1 mM Hepes (Gibco BRL) and 0.001% gentamicin sulfate. All experiments were performed using 9-10 day-old cultures. Camptothecin and etoposide (Signia) were prepared as 500× stocks in DMSO. Neuron survival was quantified by established methods. […] Briefly, viable neurons in premarked fields (10× objective) were counted before experimental treatment and at specified time points thereafter. Neurons with intact neurites of uniform diameter and soma with a smooth round appearance were considered viable. In contrast neurons with fragmented neurites and vacuolated soma were considered non-viable.

[1] = test system: C57BL/6 mice, middle cerebral artery occlusion; assay: Transient focal cerebral ischemia/reperfusion (middle cerebral artery occlusion) stroke model; format: in vivo, mouse
Protocol: Surgery was performed in anesthetized (xylazine 5 mg/kg, chloral hydrate 350 mg/kg) mice (3 month old C57B1/6) in accordance with a protocol approved by the NIH Animal Care and Use Committee. The focal ischemia/reperfusion model has been described previously. See Bruce et al. (1996) Nat. Med. 2:788-94. This method involves occluding the middle cerebral artery for 1 h with a nylon thread, and then removing it to allow reperfusion. During the procedure, mice were maintained at 37° C. and blood gases, flow and pressure were monitored. At 24 h after ischemia, mice were anesthetized, decapitated, and their brains were cut into 2 mm coronal sections, which then were stained with triphenyltetrazolium for 30 min at 37° C. Images of the stained brains were captured by digital camera for quantitative analysis of infarct area and volume.
The infarct volume for vehicle was 40 mm^3. When mice were treated with PFTα, infarct volume was 20 mm^3, a highly significant 50% decrease.

C57BL/6 mice given MPTP [2] = assay: MPTP-induced Parkinson's disease model: rotarod behavioral tests; format: in vivo, mouse; conditions: 2 mg/kg i.p. 30 min before first and 30 min after last MPTP injection; day 7
Protocol: (§1) The ability of PFTα (5) and compounds 5× (Z-1-117) and 13 (Z-1-143) to protect dopaminergic neurons against MPTP toxicity was tested. MPTP (20 mg/kg) was administered intraperitoneally to 2 month-old male C57BL/6 mice by four injections at two hour intervals to induce dopaminergic cell death.
At seven days, behavioral tests were performed using the rotarod test equipment. The number of falls and running times were measured.

[3] = test system: striatal tyrosine hydroxylase (TH); assay: MPTP model: striatal tyrosine hydroxylase levels by Western blot densitometry; format: in vivo, mouse; conditions: 2 mg/kg, 7 days later, hydrobromide
Protocol: as §1
Levels of tyrosine hydroxylase (TH), the enzyme that catalyzes the rate-limiting step in dopamine synthesis, also were assessed in the striatum using Western blot analysis.

C57BL/6 mice given MPTP [4] = assay: MPTP model: striatal dopamine, serotonin and metabolites by HPLC; format: in vivo, mouse; conditions: striatal tissue; for levels of dopamine, DOPAC, and HVA as compared to the MPTP-induced reduction (in words): 2 mg/kg; for 5-HIAA / 5-HT / DOPAC / Dopamine / HVA: compound 2 mg/kg + MPTP, mean±SE, 4-6 mice/group
Protocol: as §1
In a separate experiment, levels of striatal dopamine, dopamine metabolites, serotonin, and serotonin metabolites were measured using HPLC analysis. Specifically, mice were euthanatized, and striatal tissue samples were removed and levels of dopamine, DOPAC, HVA, 5-HT, 5-HIAA were quantified. […] There was no significant difference in levels of serotonin or serotonin metabolites.

[5] = test system: substantia nigra dopaminergic neurons; assay: MPTP model: TH-immunostained cells in the substantia nigra; format: in vivo, mouse; conditions: 2 mg/kg, seven days after treatment, 4 mice/group
Protocol: as §1
In yet another experiment, the number of TH-immunostained cells in the substantia nigra was assessed in four animals seven days after treatment. Mice were euthanized and perfused by 4% paraformadehyde transcardially. Brain sections were cut and immunostained with an antibody against TH. PFT-A and compound 5× attenuated MPTP-induced loss of substantia nigra dopaniinergic neurons.

[6] = test system: primary hippocampal neurons; assay: Neuronal survival of primary hippocampal neurons after excitotoxic insult (glutamate); format: cell-based, rat
Protocol: Dissociated hippocampal cell cultures were established from embryonic day 18 Sprague-Dawley rats (Harlan, Inc.) as described previously. See Culmsee et al. (2001) J. Neurochem. 77:220-28. Cells were grown in polyethyleneimine-coated plastic dishes or 22 m^2 glass coverslips, and incubated in Neurobasal medium containing B27 supplements, 2 mM L-glutamine, 25 mg/ml gentamycin, 1 mM Hepes (Gibco BRL) and 0.001% gentamicin sulfate. All experiments were performed using 9-10 day-old cultures. Camptothecin and etoposide (Signia) were prepared as 500× stocks in DMSO. Neuron survival was quantified by established methods. See Mattson et al. (1993) Neuron 10:243-54. Briefly, viable neurons in premarked fields (10× objective) were counted before experimental treatment and at specified time points thereafter. Neurons with intact neurites of uniform diameter and soma with a smooth round appearance were considered viable. In contrast neurons with fragmented neurites and vacuolated soma were considered non-viable.
Primary hippocampal neurons were prepared and cultured as described above. Cultures were pretreated with compounds 14 and 1 (0.04 μM) 1 h before exposure to glutamate (20 μM) in Locke's medium. The percentage of neuronal survival 24 h after the onset of insult is given as mean values±SD.

caspase activation = assay: Caspase activation; format: cell-based
[7] = compounds 100-400 nM, camptothecin 40 μM 24 h
[8] = 6 h preincubation with compound, camptothecin 40 μM for 24 h; read-out: PD50; concentration of compounds required to induce 50% protection (PC50) of PC12 cells from camptothecin-induced cell-death

SMILES	protection of PC12 cells against camptothecin-induced death (in words) (PC12 cells; [7])	neuroprotection of hippocampal neurons against etoposide (in words) (rat hippocampal neurons)	neuronal survival (rat hippocampal neurons) [%]	number of falls on rotarod (in words) (C57BL/6 mice given MPTP [2])	running time on rotarod (in words) (C57BL/6 mice given MPTP [2])	levels of dopamine, DOPAC, and HVA as compared to the MPTP-induced reduction (in words) (C57BL/6 mice given MPTP [4])	5-HIAA (C57BL/6 mice given MPTP [4]) [pg/mg tissue weight]	5-HT (C57BL/6 mice given MPTP [4]) [pg/mg tissue weight]	DOPAC (C57BL/6 mice given MPTP [4]) [pg/mg tissue weight]	Dopamine (C57BL/6 mice given MPTP [4]) [pg/mg tissue weight]	HVA (C57BL/6 mice given MPTP [4]) [pg/mg tissue weight]	MPTP-induced loss of substantia nigra dopaminergic neurons, TH-positive cells (in words) [5]	pEC50 (PC12 cells; [8])	neuroprotection of hippocampal neurons against camptothecin (in words) (rat hippocampal neurons)	further results
Cc1ccc(C(=O)Cn2c3c(sc2=N)CCCC3)cc1 [Compound 5, 1-(4-methylphenyl)-2-(4,5,6,7-tetrahydro-2-imino-3(2H)-benzothiazolyl)-ethanone hydrobromide, reference compound]	protected	had activity	62	statistically significant decease	statistically significant increase	statistically significant increase	245 ± 33	419 ± 20	170	3314	328 ± 35	attenuated			neuronal survival of PC12 cells increased (PC12 cells; compared to PC12 cells treated with camptothecin in the absence of PFTα): up to 70%; pEC50 (PC12 cells; read-out: PD50; concentration of compounds required to induce 50% protection (PC50) of PC12 cells from camptothecin-induced cell-death; 6 h preincubation with compound, camptothecin 40 μM for 24 h): 6.60; improved cell survival compared to vehicle controls after pretreatment (rat hippocampal neurons; 200 nM pretreatment 1 hour, camptothecin 5 μM or etoposide 2.5 μM): improved cell survival; protection of primary hippocampal cells against death induced by camptothecin and etoposide (in words) (rat hippocampal neurons; listed as PFTα, hydrobromide): protects; also recorded: potent activity; toxicity when administered alone to hippocampal cells (rat hippocampal neurons; concentrations up to 400 nM): neither PFTα (5) nor its precursor were toxic; brain entry after systemic administration (in words) ([1]; 2 mg/kg i.p.): entered and acted in the brain; infarct area at four different brain levels (in words) ([1]; 2 mg/kg i.p.): reduction in the infarct area; infarct volume ([1]; 2 mg/kg i.p. before 1 h MCA occlusion, 24 h after ischemia): 20 mm^3; decrease in infarct volume ([1]; 2 mg/kg i.p., versus vehicle (40 mm^3)): 50%; MPTP-induced loss of striatal tyrosine hydroxylase (in words) ([3]; listed as PFT-a): reverse the MPTP reduction in TH levels; MPTP-induced loss of striatal tyrosine hydroxylase (in words) ([3]; listed as PFT-alpha): attenuate
Br.CCC(=O)Cn1c2c(sc1=N)CCCC2 [Compound 1, 1-(4.5,6,7-tertahydro-2-imino-3(2H)-benzothiazolyl)-2-butanone Hydrobromide]		more active than compound PFTα	65										6.24	significant neuroprotection	protection of primary hippocampal cells against death induced by camptothecin and etoposide (in words) (rat hippocampal neurons; Hydrobromide): had neuroprotection; also recorded: highly potency; protection of hippocampal neurons against glutamate-induced death (in words) ([6]; 0.04 μM 1 h before glutamate (20 μM), survival at 24 h): protect; neuron survival increased ([6]; neurons pretreated with compound, death induced by glutamate): 39%; caspase activation (in words) (caspase activation): suppress caspase activation
Br.Cc1ccc(C(=O)Cn2c3c(sc2=N)CC(C)CC3)cc1 (stereo not drawn) [Compound 5×, 1-(4-methylphenyl)-2-(4,5,6,7-tertahydro-2-imino-6-methyl-3(2H)-benzothiazolyl)-ethanone hydrobromide]	highly potent	activity comparable to PFTα	29	statistically significant decease	statistically significant increase	statistically significant increase	246 ± 15	424 ± 12	102	1833	302 ± 20	attenuated	6.51	could not protect neurons effectively	protection of primary hippocampal cells against death induced by camptothecin and etoposide (in words) (rat hippocampal neurons): highly potency; MPTP-induced loss of striatal tyrosine hydroxylase (in words) [3]: attenuate; also recorded: reverse the MPTP reduction in TH levels
Br.N=c1sc2c(n1CC(=O)c1ccccc1)CCCC2 [Compound 13, 1-phenyl-2-(4,5,6,7-tertahydro-2-imino-3(2H)-benzothiazolyl)-ethanone hydrobromide]							223 ± 45	429 ± 42	10 ± 10	440	91 ± 58		6.77		protection of PC12 cells against camptothecin-induced death (in words) (PC12 cells; compounds 100-400 nM, camptothecin 40 μM 24 h; hydrobromide): highly potent; also recorded: highly active in PC12 cells only
